Legend:
[1] = test system: CD62P (P-selectin) surface expression on platelets; test: Whole blood flow cytometry of platelet CD62P surface expression (α-granule release); format: cell-based; settings: for median PE fluorescence (CD62P) / frequency of CD62P expression (CD62P+ platelets): Example 1; for CD62P expression: Example 2, iloprost 0.5 μM where added, mean of 3 subjects; for MFI Over Time (CD62P, all platelet events): Example 3, 10 subjects
Excerpt: (§1) Platelet activation can result in a robust and rapid release of α-granules, dense granules, and lysosomes, the contents of which serve to promote a variety of autocrine and paracrine signal transduction events. CD62P (P-selectin) is an adhesion molecule that is transiently expressed on the platelet plasma membrane following α-granule release and can mediate platelet-leukocyte aggregates via ligation with leukocyte expressed P-selectin glycoprotein ligand 1 (PSGL-1/CD162). Dense granule and lysosome release can be measured, although not distinguished, with CD63 surface expression.
(§2) The effect of EDTA on platelet activation, as judged by CD62P and CD63 surface expression, was evaluated in the presence or absence of the platelet stabilization agent (iloprost). Whole blood was collected into tubes containing EDTA or EDTA with iloprost at 0.5, 5 and 50 μM final concentration. Antibody cocktails containing previously determined amounts of αCD61 PerCP, αCD62P PE, αCD63 Alexa Fluor® 647, and/or appropriate isotype controls were added to a conical bottom micro titer plate. A modified HEPES-Tyrode's buffer was used to equilibrate the final volume to 100 μL for each staining reaction. Platelet surface staining was performed by adding 5 μL of whole blood to the appropriate staining mix and incubating at RT under dark conditions for 15 minutes. Afterwards, the entire reaction was transferred to 5 mL round bottom polystyrene snap cap tubes containing 1 mL of HEPES-Tyrode's buffer for a final dilution of each sample. Samples were briefly vortexed and data was acquired using a BD FACScalibur instrument. FSC and SSC settings were established on the log scale in order to discern platelet size and morphology from RBC and WBC populations. In order to further discriminate platelet-specific events, a PerCP alone control was used to establish a CD61^+ gate. Since CD63 is not a platelet specific marker it was necessary to further gate on the single platelet morphology population to avoid a CD63 signature from the platelet-bound leukocytes. The PerCP alone control was also used to set fluorescence detector voltages for CD62P^−/CD63^− populations. Once voltage and compensation settings were finalized, 10,000 CD61^+/single platelet events were acquired for each test sample.
The effect of iloprost on platelet activation was studied in the presence of strong platelet-activating agents, ADP and thrombin-receptor activating peptide (TRAP). Platelet stimulations were performed by adding 300 μL blood to micro-centrifuge tubes containing 10 μL of saline (0.85%), ADP, or TRAP-6 and incubating for approximately 2 min at RT. Final concentrations of ADP and TRAP-6 were 6.5 μM and 32 μM, respectively. Afterwards, whole blood flow cytometry was performed as described above. Blood collection and flow cytometry was performed as described in example 1.
The effect of iloprost on platelet degranulation was measured in EDTA and EDTA/protease inhibitor background. Whole blood was collected into tubes containing EDTA, EDTA with iloprost, a protease inhibitor cocktail (“PIC”, which included one protease inhibitor from each class of inhibitor described in Table II in U.S. Pat. No. 7,309,468), and the cocktail with iloprost. Whole blood flow cytometry to measure CD62P expression was performed as described in example 1.

[2] = test system: CD63 surface expression on platelets; test: Whole blood flow cytometry of platelet CD63 surface expression (dense granule/lysosome release); format: cell-based; settings: Example 2; for CD63 surface expression: EDTA without iloprost
Excerpt: as §1
as §2, with “Since CD63 is not a platelet specific marker it was necessary to further gate on the single platelet morphology population to avoid a CD63 signature from the platelet-bound leukocytes.” left out, “Once voltage and compensation settings were finalized, 10,000 CD61^+/single platelet events were acquired for each test sample.” left out

[3] = molecular target: acetylcholinesterase (AChE) (Homo sapiens, UniProt P22303); settings: read-out: Ki for AChE; cited from earlier work
RANTES (CCL5) = test: Plasma biomarker release, ELISA; format: cell-based; settings: 0, 2, 8 and 24 hr sample dwell; relative to EDTA alone
Description: (§3) Blood was collected as described in example 1. Plasma was prepared at indicated timepoints (0, 2, 8 and 24 hr sample dwell) by centrifuging the tubes at 3000 rcf for 10 min. and was used to measure levels of PDGFa/a, TGFβ1, VEGF, IL-8 (CXCL8), and RANTES (CCL5) using commercially available ELISA kits, per manufacturer's instructions.

PDGFa/a = test: Plasma biomarker release, ELISA; format: cell-based; settings: 0, 2, 8 and 24 hr sample dwell; relative to EDTA alone
Description: as §3

VEGF = test: Plasma biomarker release, ELISA; format: cell-based; settings: 0, 2, 8 and 24 hr sample dwell; relative to EDTA alone
Description: as §3

TGFβ1 = test: Plasma biomarker release, ELISA; format: cell-based; settings: 0, 2, 8 and 24 hr sample dwell; relative to EDTA alone
Description: as §3

IL-8 (CXCL8) = test: Plasma biomarker release, ELISA; format: cell-based; settings: EDTA with iloprost versus EDTA alone
Description: as §3

[4] = test system: platelets (platelet clumping); test: Complete blood count and hematology parameters, Sysmex XE-2100; format: cell-based; settings: compared to EDTA alone
[5] = test system: platelet-leukocyte aggregates; test: Leukocyte-platelet aggregates by flow cytometry (αCD61/αCD45); format: cell-based; settings: t=0, 4, 24 and 144 hr of sample dwell; versus EDTA alone; 6 subjects
Excerpt: Blood was collected as described in example 1. Antibody cocktails containing previously determined amounts of αCD61 (platelet marker), αCD45 (leukocyte marker) and/or appropriate isotype controls were used to detect the platelet-leukocyte aggregates at t=0, 4, 24 and 144 hr of sample dwell with the use of flow cytometry as described in example 1. […] Data representative of 6 subjects.

[6] = whole blood in EDTA, iloprost 0.5 μM
[7] = whole blood in EDTA, iloprost 5 μM
[8] = whole blood in EDTA, iloprost 50 μM

Chain of acetylcholinesterase (AChE) (P22303 32-614, species assumed): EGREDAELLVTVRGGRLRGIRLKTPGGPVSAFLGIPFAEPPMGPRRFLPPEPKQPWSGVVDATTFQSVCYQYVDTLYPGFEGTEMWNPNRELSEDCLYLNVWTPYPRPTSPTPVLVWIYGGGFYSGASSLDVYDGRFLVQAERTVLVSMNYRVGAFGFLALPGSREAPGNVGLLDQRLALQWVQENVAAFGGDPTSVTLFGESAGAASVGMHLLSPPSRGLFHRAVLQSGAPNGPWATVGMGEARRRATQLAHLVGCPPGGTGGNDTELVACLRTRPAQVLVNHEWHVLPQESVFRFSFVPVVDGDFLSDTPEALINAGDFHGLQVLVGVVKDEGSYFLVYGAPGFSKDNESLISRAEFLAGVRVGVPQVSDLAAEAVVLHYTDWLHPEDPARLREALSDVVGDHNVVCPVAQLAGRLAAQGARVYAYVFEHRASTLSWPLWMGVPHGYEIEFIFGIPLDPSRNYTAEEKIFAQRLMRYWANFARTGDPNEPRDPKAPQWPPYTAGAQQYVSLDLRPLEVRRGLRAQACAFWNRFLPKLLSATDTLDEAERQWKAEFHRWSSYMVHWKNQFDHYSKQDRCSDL

O=C(O)CN(CCN(CC(=O)O)CC(=O)O)CC(=O)O [EDTA, Ethylenediamine tetraacetic acid]
median PE fluorescence (CD62P) ([1]; whole blood in EDTA alone): 44.7
frequency of CD62P expression (CD62P+ platelets) ([1]; whole blood in EDTA alone, no iloprost): 44.7%
CD62P expression ([1]; ADP 6.5 μM activated): 85.1%
CD62P expression ([1]; TRAP-6 32 μM activated): 99.4%
CD62P expression ([1]; resting samples (saline)): 44.6%
MFI Over Time (CD62P, all platelet events) ([1]; 0 hrs sample dwell): 20.21
MFI Over Time (CD62P, all platelet events) ([1]; 2 hrs sample dwell): 42.66
MFI Over Time (CD62P, all platelet events) ([1]; 8 hrs sample dwell): 33.14
MFI Over Time (CD62P, all platelet events) ([1]; 24 hrs sample dwell): 63.02
MFI (CD62P, all platelet events) ([1]; Example 10, 5 subjects): 171.56
CD63 surface expression ([2]; ADP 6.5 μM): 7.67%
CD63 expression ([2]; TRAP-6 32 μM stimulated, iloprost 0.5, 5, 50 μM where added): 69.3%
CD63 surface expression ([2]; unstimulated): 2.13%

CCC1=CC2Cc3nc4cc(Cl)ccc4c(N)c3C(C1)C2 [Huprine X, (1S)-7-chloro-15-ethyl-10-azatetracyclo[11.3.1.0̂{2,11}.0̂{4,9}]heptadeca-2(11),3,5,7,9,14-hexane-3-amine]
Ki [3]: 26 pM

CC#CCC(C)[C@H](O)/C=C/[C@@H]1[C@H]2C/C(=C/CCCC(=O)O)C[C@H]2C[C@H]1O (some centres unmarked) [iloprost]
frequency of CD62P expression (CD62P+ platelets) [1, 6]: 15.0%
median PE fluorescence (CD62P) [1, 6]: 7.31
frequency of CD62P expression (CD62P+ platelets) [1, 7]: 14.1%
median PE fluorescence (CD62P) [1, 7]: 7.12
frequency of CD62P expression (CD62P+ platelets) [1, 8]: 13.9%
median PE fluorescence (CD62P) [1, 8]: 7.06
CD62P expression ([1]; ADP 6.5 μM activated): 17.3%
CD62P expression ([1]; TRAP-6 32 μM activated): 33.4%
CD62P expression ([1]; resting samples (saline)): 15.0%
percentage of CD62+ events ([1]; Example 10, both EDTA and PIC backgrounds, 5 subjects): reduced
expression of RANTES in plasma (RANTES (CCL5)): reduced
expression of PDGFa/a in plasma (PDGFa/a): reduced
expression of VEGF in plasma (VEGF): reduced
expression of TGFβ1 in plasma (TGFβ1): reduced
expression of IL-8 in plasma (IL-8 (CXCL8)): similar
mean platelet volume (MPV) ([4]; p<0.001, Paired Test): lower
decrease in platelet clumps ([4]; study of 300 normal healthy subjects): 40%
percentage of leukocyte-bound platelets [5]: reduced

Source: US20130209985A1, “SAMPLE COLLECTION DEVICES WITH BLOOD STABILIZING AGENTS” (priority 2012, published 2013)
